Data: patent US20050053921A1, “Systems for screening anti-hepatitis drugs” (priority 2003, published 2005)

Columns and labels:
[1] = molecular target: NS3/4A protease (Hepatitis C virus genotype 1a, UniProt P27958); assay: cell-based; design: species or system HCV type 1a
Protocol: One of the cloned cell lines was further infected with the lentiviral vector encoding NS 3/4A gene. After zeocin selection (250 μg/ml) for 3 to 4 weeks, one zoscine-resistant clone was obtained. This cell line was confirmed by Western blot to express both NS3/4A protease and EG(D4AB)SEAP, and therefore designated as 293P-EG(Δ4AB)SEAP-NS3/4A.
More specifically, 293P-EG(Δ4AB)SEAP-NS3/4A cells were seeded in 96-well plates (1.5×10^4 cells per well) and cultured at 37° C. overnight. […] Two days later, the culture medium in each well was replaced with fresh phenol red-free DMEM/10% FBS containing the same concentration of drugs. After another day, the culture medium was collected and the SEAP activity was measured using a Phospha-Light assay kit (Tropix, Foster City, Calif., USA) according to manufacturer's instruction.

[2] = system: 293P-EG(Δ4AB)SEAP-NS3/4A cells; assay: MTS cellular toxicity assay; type: cell-based; details: concentration up to 10 μM
[3] = molecular target: T1, NS3/4A protease in Ava5-EG(Δ4AB)SEAP cells (Hepatitis C virus genotype 1b, UniProt Q9WMX2); assay: SEAP activity in medium of stable Ava5-EG(Δ4AB)SEAP cells; type: cell-based, HCV; details: for extracellular SEAP activity: TPCK 0-40 μM or IFN-γ 0-100 I.U./ml
T1 construct: Ava5 cells expressed endogenous NS3/4A protease; endogenous in cells; host or cells: Ava5 cells (Huh-7 carrying an HCV subgenomic replicon)
T1 sequence (Q9WMX2 1027-1657, stated change not applied): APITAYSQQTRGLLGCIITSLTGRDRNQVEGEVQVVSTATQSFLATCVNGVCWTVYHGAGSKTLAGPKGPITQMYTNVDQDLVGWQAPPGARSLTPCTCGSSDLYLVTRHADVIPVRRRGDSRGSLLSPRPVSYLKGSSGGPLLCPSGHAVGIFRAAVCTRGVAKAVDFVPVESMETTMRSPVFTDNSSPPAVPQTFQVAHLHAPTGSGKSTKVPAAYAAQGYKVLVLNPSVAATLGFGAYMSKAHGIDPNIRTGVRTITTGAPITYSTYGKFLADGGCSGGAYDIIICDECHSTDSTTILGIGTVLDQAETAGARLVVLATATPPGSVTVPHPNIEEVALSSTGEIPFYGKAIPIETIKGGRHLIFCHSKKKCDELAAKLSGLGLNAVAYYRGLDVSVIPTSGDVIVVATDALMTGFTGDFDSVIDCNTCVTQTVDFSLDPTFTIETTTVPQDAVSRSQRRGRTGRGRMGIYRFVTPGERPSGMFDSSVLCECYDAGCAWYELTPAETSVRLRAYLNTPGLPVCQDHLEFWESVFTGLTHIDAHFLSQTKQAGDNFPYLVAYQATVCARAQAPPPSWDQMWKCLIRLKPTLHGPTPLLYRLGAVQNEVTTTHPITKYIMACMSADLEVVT
T1 sequence (Q9WMX2 1658-1711, stated change not applied): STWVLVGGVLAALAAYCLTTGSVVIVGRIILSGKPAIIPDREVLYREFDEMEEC
Protocol: (§1) After the cotransfection, culture media and cell lysates were harvested at 12-hour intervals. The SEAP activity in the culture medium and the β-galactosidase activity in the cell lysates were measured using Phospha-Light and Galacto-Star assay kits (Tropix, Foster, Calif., USA), respectively. The respective chemiluminescent intensities were detected by a Top Counter Microplate Scintillation and Luminescence Counter (Packard, Meriden, Conn., USA). The intensities reflected the relative activities of SEAP and […]. In these experiments, the β-gal activity was used to normalize transfection efficiency according standard techniques. Meanwhile, fluorescence emitted from the green fluorescent protein was examined using a fluorescence microscope (Nikon DIAPHOT 300).
Huh-7 or Ava5 cells were seeded in 24-well plates at a density of 2×10^4 cells per well. After incubation at 37° C. overnight, the cells were transduced with serial dilutions of lentiviral particles in the presence of 6 μg/ml polybrene (Sigma, St. Louis, Mo., USA) in the manner described above. After incubation for 24 hours, the virus-containing medium was replaced by a fresh medium and the cells were incubated for another 2 days. The cells were then selected in the presence of 10 μg/ml of blasticidin for 3-4 weeks.
One blasticidin-resistant Huh-7 clone and two blasticidin-resistant Ava5 clones were obtained. Cell lines thus produced were designated as Huh-7-EG(Δ4AB)SEAP and […], respectively. The cells were then examined for expression of EG(Δ4AB)SEAP and the amount NS3 protein by Western blot analysis using anti-EGFP antibody and anti-NS3 antibody, respectively. […] They also expressed free EGFP, resulting from the cleavage of the EG(Δ4AB)SEAP by NS3/4A protease. In naive Huh-7 and Ava5 cells, neither free EGFP nor NS3 could be detected.
(§2) Ava5-EG(Δ4AB)SEAP clone 1 was further treated by IFN-α (0-50 units/ml) in the manner described above. They, the cells were examined for cellular NS3/4A protein and HCV RNA levels by western blot and dot blot, respectively. The dot blot was conducted as follows: RNA was extracted using TRIZOL reagent (Invitrogen). Three micrograms of RNA was dissolved in 100 μl of TE buffer (10 mM Tris-HCl, 1 mM EDTA, pH 7.5) and 60 μl of 20×SSC, and 40 μl of 37% formaldehyde stock solution were added. The samples were incubated at 60° C. for 15 min and then applied to pre-wetted nylon membrane using an S&S Minifold® I dot-blot device (Schleicher & Schuell GmbH, Relliehausen, Germany). Each well was washed twice with 6×SSC. Bound RNA was immobilized onto the membrane by UV-cross linking (Stratagene, La Jolla, Calif., USA) under the autocross-link condition, then hybridization and counting were conducted as described (Lee et al., 2003. Anal. Biochem.316, 162-170a). The membrane was probed with NS5B gene fragment of HCV labeled with […] by rediprime II random primer labeling system (Amersham Biosciences, Buckinghamshire, England). The blots were visualized by autoradiography and intensities of the blots were measured by densitometry (UVP GDS-8000 BioImaging System, Upland, Calif., USA).
The just-described cell line was used to examined several other known anti-HCV compounds, such as an NS3/4A inhibitor, N-tosyl-1-phenylalanine chloromethyl ketone (TPCK) (Berdichevsky et al., 2003, J. Virol. Methods 107, 245-255.), and IFN-γ (Frese et al., 2002, Hepatology 35, 694-703.). […]

[4] = system: endogenous NS3/4A protease in Ava5 cells; assay: SEAP activity in medium of Ava5 cells transiently transfected with EG(Δ4AB)SEAP; type: cell-based, HCV; details: 100 IU/ml
Sequence of endogenous NS3/4A protease in Ava5 cells (Q9WMX2 1027-1657): as the sequence (Q9WMX2 1027-1657, stated change not applied) above
Protocol: as §1
Ava5 cells expressed endogenous NS3/4A protease. […] Western blotting was also conducted in the same manner.

[5] = system: HCV subgenomic replicons (HCV RNA); assay: HCV RNA level by Northern hybridization in Ava5 cells expressing EG(Δ4AB)SEAP; type: cell-based; details: 100 IU/ml
[6] = system: HCV RNA; assay: HCV RNA level by dot blot in Ava5-EG(Δ4AB)SEAP clone 1; type: cell-based; details: 0-50 units/ml
Protocol: as §2

[7] = system: NS3/4A protein; assay: Cellular NS3/4A protein level by western blot in Ava5-EG(Δ4AB)SEAP clone 1; type: cell-based, HCV; details: 0-50 units/ml
Sequence of NS3/4A protein (Q9WMX2 1027-1657): as the sequence (Q9WMX2 1027-1657, stated change not applied) above
Protocol: as §2

[8] = system: HCV NS3 protease; details: 100 IU/ml, Ava5 cells, especially after 3 days of treatment
Sequence of HCV NS3 protease (Q9WMX2 1027-1657): as the sequence (Q9WMX2 1027-1657, stated change not applied) above
Protocol: They were maintained in DMEM/10% FBS/1 mg/ml G418 (Geneticin) and DMEM/10% FBS, respectively. Ava5 cells expressed endogenous NS3/4A protease. The above-described dual-reporter construct was transient transfected into the cells in the same manner descried above except that FuGENE 6 (Roche), instead of LipofectamineTM was used. Western blotting was also conducted in the same manner.
Ava5 cells expressing EG(Δ4AB)SEAP were then tested for the ability to screen for HCV protease inhibitors. More specifically, the cells were treated with IFN-α (Schering-Plough Corp., Kenilworth, N.J., USA) and examined for the SEAP activity in their medium in the manner described above.
The protein level of NS3 protease was also determined by standard techniques.

[9] = Ava5-EG(Δ4AB)SEAP cells, 72 hours

Sequence of NS3/4A protease (P27958 1027-1657): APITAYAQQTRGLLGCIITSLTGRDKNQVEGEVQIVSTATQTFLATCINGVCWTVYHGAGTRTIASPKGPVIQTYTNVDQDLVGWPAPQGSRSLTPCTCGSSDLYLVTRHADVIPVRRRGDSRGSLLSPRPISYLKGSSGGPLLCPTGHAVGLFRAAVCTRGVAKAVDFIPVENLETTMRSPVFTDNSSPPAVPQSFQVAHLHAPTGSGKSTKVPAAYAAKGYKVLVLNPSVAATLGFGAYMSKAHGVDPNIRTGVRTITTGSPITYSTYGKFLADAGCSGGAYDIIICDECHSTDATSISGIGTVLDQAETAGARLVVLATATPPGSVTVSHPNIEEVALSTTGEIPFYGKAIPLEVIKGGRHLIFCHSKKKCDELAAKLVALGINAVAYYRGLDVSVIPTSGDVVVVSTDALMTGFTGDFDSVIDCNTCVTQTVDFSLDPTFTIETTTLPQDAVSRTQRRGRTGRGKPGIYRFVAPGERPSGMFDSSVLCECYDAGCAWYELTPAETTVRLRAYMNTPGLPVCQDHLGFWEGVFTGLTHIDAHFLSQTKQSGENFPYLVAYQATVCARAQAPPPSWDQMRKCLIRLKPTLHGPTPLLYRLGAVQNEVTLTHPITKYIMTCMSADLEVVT
Sequence of NS3/4A protease (P27958 1658-1711): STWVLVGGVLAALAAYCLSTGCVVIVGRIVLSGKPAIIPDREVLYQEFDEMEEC

Molecule: COc1ccc2c(O[C@@H]3C[C@H]4C(=O)N[C@]5(C(=O)O)C[C@H]5/C=C\CCCCC[C@H](NC(=O)OC5CCCC5)C(=O)N4C3)cc(-c3csc(NC(C)C)n3)nc2c1 [BILN-2061]
- EC50 [1]: ~2 nM
- cellular toxicity as measured by MTS assay [2]: did not cause detectable cellular toxicity

Molecule: Cc1ccc(S(=O)(=O)N[C@@H](Cc2ccccc2)C(=O)CCl)cc1 [TPCK, N-tosyl-1-phenylalanine chloromethyl ketone, reference compound]
- extracellular SEAP activity [3, 9]: dose-dependent decrease
- suppression of HCV replication ([3]; at 0.2 μM, Ava5-EG(Δ4AB)SEAP cells, 72 hours): more than 50%

Molecule: IFN-α
- SEAP activity in the culture medium [4]: decreased
- RNA levels of gadph (housekeeping gene) [5]: remained the same
- HCV RNA levels ([5]; especially after 3 days of treatment): declined
- SEAP activity in the culture medium ([3]; 0-50 units/ml, Ava5-EG(Δ4AB)SEAP clone 1): decreased
- HCV RNA level (dot blot) [6]: decreased
- cellular NS3/4A protein level (western blot) [7]: decreased
- HCV NS3 protease levels [8]: declined

B1: IFN-γ: IFN-γ, known anti-HCV compound (Frese et al., 2002) (protein, UniProt P01579 24-161, looked up)
Interferon gamma: QDPYVKEAENLKKYFNAGHSDVADNGTLFLGILKNWKEESDRKIMQSQIVSFYFKLFKNFKDDQSIQKSVETIKEDMNVKFFNSNKKKRDDFEKLTNYSVTDLNVQRKAIHELIQVMAELSPAAKTGKRKRSQMLFRG
- extracellular SEAP activity [3, 9]: repressed
- EC50 (effective concentration for 50% inhibition) ([3]; extracellular SEAP activity, Ava5-EG(Δ4AB)SEAP cells, 72 hours): below 10 IU/ml
